Laboratory results as given in patent publication US7420090B2 (priority 2002, dated 2008).

System: Pyrenophora teres
Type: in vivo
Conditions: 200 ppm

Structure (SMILES): CCC(Oc1cc(Cl)cc(Cl)c1)C(=O)NC(C)(C)C#CCCCOC (stereo not shown) [4(57), 2-(3,5-dichlorophenoxy)-N-(1-methoxy-6-methylhept-4-yn-6-yl) butyramide]
- control of fungal infection (preventive fungicidal activity): more than 60%
